From the NIST ThermoML archive (doi:10.1016/j.jct.2009.04.017)
± gives the expanded uncertainty stated by the source.

Assay: molar enthalpy of vaporization or sublimation
Conditions: Calvet microcalorimetry

SMILES: Oc1ccccc1Br [phenol, 2-bromo-]
- molar enthalpy (298.15 K, Liquid): 13.3 ± 0.621 kcal/mol
- molar enthalpy (329.2 K, Liquid): 13.3 ± 0.621 kcal/mol

SMILES: Oc1ccc(Br)cc1 [4-bromophenol]
- molar enthalpy (298.15 K, Crystal): 19.9 ± 0.765 kcal/mol
